“And” between values parts separate entries of the source, which are not always exact repeats. Equal values may be shown once. Inconclusive results and toxic doses are left out. Rule as the data show it: active = T/C of 150% or more; inactive = T/C below 125%.
Test system: L1210 leukemia ip in BDF1 mice, survival T/C
Assay: NCI In Vivo Anticancer Drug Screen. Data for tumor model L1210 Leukemia (intraperitoneal) in B6D2F1 (BDF1) mice
Details: endpoint: mean survival time, higher = longer survival
Outline: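 Antitumor effect is assessed in tumor-bearing animals. Survival in the compound arm is compared with a vehicle-dosed control arm and expressed as their quotient.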

[1] = dose: 100.0 mg/kg/injection, schedule: Q04DX002 (ip), vehicle: saline with Tween-80
[2] = dose: 200.0 mg/kg/injection, schedule: Q04DX002 (ip), vehicle: saline with Tween-80
[3] = dose: 50.0 mg/kg/injection, schedule: Q01DX001 (ip), vehicle: saline
[4] = dose: 100.0 mg/kg/injection, schedule: Q01DX001 (ip), vehicle: saline
[5] = dose: 200.0 mg/kg/injection, schedule: Q01DX001 (ip), vehicle: saline
[6] = dose: 400.0 mg/kg/injection, schedule: Q01DX001 (ip), vehicle: saline
[7] = dose: 100.0 mg/kg/injection, schedule: Q04DX003 (ip), vehicle: saline with Tween-80
[8] = dose: 200.0 mg/kg/injection, schedule: Q04DX003 (ip), vehicle: saline with Tween-80
[9] = dose: 400.0 mg/kg/injection, schedule: Q04DX003 (ip), vehicle: saline with Tween-80
[10] = dose: 100.0 mg/kg/injection, schedule: Q04DX003 (ip), vehicle: saline
[11] = dose: 200.0 mg/kg/injection, schedule: Q04DX003 (ip), vehicle: saline
[12] = dose: 400.0 mg/kg/injection, schedule: Q04DX003 (ip), vehicle: saline
[13] = dose: 100.0 mg/kg/injection, schedule: Q01DX001 (ip), vehicle: saline with Tween-80
[14] = dose: 200.0 mg/kg/injection, schedule: Q01DX001 (ip), vehicle: saline with Tween-80
[15] = dose: 400.0 mg/kg/injection, schedule: Q01DX001 (ip), vehicle: saline with Tween-80
[16] = dose: 12.5 mg/kg/injection, schedule: Q01DX009 (ip), vehicle: saline with Tween-80
[17] = dose: 25.0 mg/kg/injection, schedule: Q01DX009 (ip), vehicle: saline with Tween-80
[18] = dose: 100.0 mg/kg/injection, schedule: Q01DX009 (ip), vehicle: saline with Tween-80

Measured: T/C

Cc1ccc(N(Cc2ccccc2)Cc2ccccc2)cc1
inactive: dose: 75.0 mg/kg/injection, schedule: Q01DX009 (ip), vehicle: other 103 % of control | dose: 100.0 mg/kg/injection, schedule: Q04DX002 (ip), vehicle: other 105 % of control | dose: 150.0 mg/kg/injection, schedule: Q01DX009 (ip), vehicle: other 106 % of control | dose: 200.0 mg/kg/injection, schedule: Q04DX002 (ip), vehicle: other 97 % of control | dose: 300.0 mg/kg/injection, schedule: Q01DX009 (ip), vehicle: other 98 % of control | dose: 400.0 mg/kg/injection, schedule: Q04DX002 (ip), vehicle: other 97 % of control

CN(C)S(=O)(=O)c1ccc(N=NN2CCOCC2)cc1
inactive: [1] 115 % of control | [2] 97 % of control | dose: 400.0 mg/kg/injection, schedule: Q04DX002 (ip), vehicle: saline with Tween-80 108 % of control

CC1CCC(Oc2nc3c(c(=O)n(C)c(=O)n3C)n2C)CC1 (configuration not stated)
inactive: dose: 50.0 mg/kg/injection, schedule: Q01DX001 (ip), vehicle: other 104 % of control and 100 % of control | dose: 100.0 mg/kg/injection, schedule: Q01DX001 (ip), vehicle: other 101 % of control and 103 % of control | dose: 200.0 mg/kg/injection, schedule: Q01DX001 (ip), vehicle: other 101 % of control and 92 % of control | dose: 400.0 mg/kg/injection, schedule: Q01DX001 (ip), vehicle: other 95 % of control

O=C1OC2c3ccccc3C3CC(=O)C2C13 (configuration not stated)
inactive: [3] 98 % of control | [4] 104 % of control | [5] 98 % of control | [6] 96 % of control

O=C(O)c1cc(Cc2c[nH]c(=O)[nH]c2=O)ccc1O
inactive: dose: 50.0 mg/kg/injection, schedule: Q01DX005 (ip), vehicle: water 109 % of control | dose: 100.0 mg/kg/injection, schedule: Q01DX005 (ip), vehicle: water 98 % of control | dose: 200.0 mg/kg/injection, schedule: Q01DX005 (ip), vehicle: water 102 % of control

CC12CCC(O1)C1C[N+](C)(CCC#N)CC12 (configuration not stated)
inactive: dose: 55.0 mg/kg/injection, schedule: Q01DX Z (ip), vehicle: saline 105 % of control | dose: 83.0 mg/kg/injection, schedule: Q01DX Z (ip), vehicle: saline 100 % of control | dose: 125.0 mg/kg/injection, schedule: Q01DX Z (ip), vehicle: saline 105 % of control

CC(=O)Nc1ccc(Cc2ccc3[nH]c(C)cc(=O)c3c2)cc1
inactive: [4] 109 % of control | [5] 98 % of control | [6] 93 % of control

CC(=O)NC(CC(N)=O)C(=O)O (configuration not stated)
inactive: dose: 100.0 mg/kg/injection, schedule: Q04DX002 (ip), vehicle: saline 96 % of control | dose: 200.0 mg/kg/injection, schedule: Q04DX002 (ip), vehicle: saline 99 % of control | dose: 400.0 mg/kg/injection, schedule: Q04DX002 (ip), vehicle: saline 99 % of control

CCOC(CCC#N)c1ccccc1 (configuration not stated)
inactive: [7] 95 % of control | dose: 125.0 mg/kg/injection, schedule: Q01DX009 (ip), vehicle: saline with Tween-80 113 % of control | [8] 98 % of control | dose: 235.0 mg/kg/injection, schedule: Q01DX009 (ip), vehicle: saline with Tween-80 96 % of control | [9] 92 % of control

Cc1cnc(C(N)=O)c(=O)[nH]1
inactive: dose: 100.0 mg/kg/injection, schedule: Q01DX009 (ip), vehicle: saline 96 % of control | [10] 100 % of control | dose: 200.0 mg/kg/injection, schedule: Q01DX009 (ip), vehicle: saline 96 % of control | [11] 100 % of control | dose: 400.0 mg/kg/injection, schedule: Q01DX009 (ip), vehicle: saline 98 % of control | [12] 97 % of control

CSC(C#N)NC(=O)c1ccc([N+](=O)[O-])cc1 (configuration not stated)
inactive: dose: 50.0 mg/kg/injection, schedule: Q04DX002 (ip), vehicle: Klucel (hydroxypropylcellulose) (HPC) 98 % of control | dose: 100.0 mg/kg/injection, schedule: Q04DX002 (ip), vehicle: Klucel (hydroxypropylcellulose) (HPC) 97 % of control and 109 % of control | dose: 200.0 mg/kg/injection, schedule: Q04DX002 (ip), vehicle: Klucel (hydroxypropylcellulose) (HPC) 98 % of control and 109 % of control

CCc1c(/C=C2/OC(=O)NC2=O)[nH]c(=S)[nH]c1=O
inactive: [7] 97 % of control | [8] 96 % of control | [9] 96 % of control

CC(=O)c1c(C)[nH]c2ccccc12
inactive: [13] 101 % of control | [7] 95 % of control | [14] 103 % of control | [8] 95 % of control | [15] 97 % of control | [9] 95 % of control

O=C(Cc1ccccn1)c1ccccn1
inactive: [4] 98 % of control | [10] 100 % of control | [5] 117 % of control | [11] 102 % of control | [6] 119 % of control | [12] 98 % of control

O=C1CCCCCCCCCC/C(=N/O)CCCO1
inactive: [13] 100 % of control | [14] 92 % of control | [15] 89 % of control

CC1CCCCN1P(N1CCCCC1C)N1CCCCC1C (configuration not stated)
inactive: [1] 98 % of control | [2] 98 % of control

O=C1NC(c2ccccc2)(c2ccccc2)C(=O)N1CCN(CCCl)CCCl
inactive: [16] 116 % of control | [17] 102 % of control | dose: 50.0 mg/kg/injection, schedule: Q04DX003 (ip), vehicle: saline with Tween-80 105 % of control | [18] 121 % of control | [7] 116 % of control and 121 % of control

CCOc1ccc(NC(=O)NCBr)cc1
inactive: [16] 106 % of control | [17] 95 % of control | dose: 50.0 mg/kg/injection, schedule: Q01DX009 (ip), vehicle: saline with Tween-80 87 % of control | [18] 87 % of control

CC[N+](CC)(CC)Cc1ccccc1
inactive: dose: 6.25 mg/kg/injection, schedule: Q01DX009 (ip), vehicle: Klucel (hydroxypropylcellulose) (HPC) 104 % of control | dose: 6.25 mg/kg/injection, schedule: Q04DX003 (ip), vehicle: saline 113 % of control | dose: 12.5 mg/kg/injection, schedule: Q01DX009 (ip), vehicle: Klucel (hydroxypropylcellulose) (HPC) 107 % of control | dose: 12.5 mg/kg/injection, schedule: Q04DX003 (ip), vehicle: saline 97 % of control | dose: 25.0 mg/kg/injection, schedule: Q01DX001 (ip), vehicle: saline 96 % of control and 100 % of control | dose: 25.0 mg/kg/injection, schedule: Q01DX009 (ip), vehicle: Klucel (hydroxypropylcellulose) (HPC) 98 % of control and 100 % of control | dose: 25.0 mg/kg/injection, schedule: Q04DX003 (ip), vehicle: saline 97 % of control and 100 % of control | [3] 98 % of control and 102 % of control | dose: 50.0 mg/kg/injection, schedule: Q04DX003 (ip), vehicle: saline 98 % of control

CCCCNCCN(CC)CC
inactive: [7] 98 % of control
